Laboratory results published in US20130303376A1, “METHODS OF IMPROVING PLANT GROWTH” (Bayer CropScience AG, priority 2007, published 2013).
“And” between values parts separate entries of the source, which are not always exact repeats. Identical values can stand only once.

Legend:
Format in all cases: in vivo
[1] = test system: Solanum lycopersicum ‘Rentita’; experiment: Shoot length test on tomatoes under oxygen deficiency conditions in the nutrient solution; conditions: 1.0 mg a.i./plant; floating box, nutrient solution not aerated (oxygen deficiency stress); average maximum shoot length after 19 d
Description: To prepare a suitable solution of the preparation, 1 part by weight of active substance is mixed with water to give the desired concentration.
(§1) Tomato seeds (Solanum lycopersicum ‘Rentita’) are grown in rock wool. After germination, the rock wool blocks are transferred into a floating box provided with the solution of the preparation and grown on under suitable climatic conditions.
(§2) The nutrient solution of the floating box was not aerated (oxygen deficiency stress).
After the desired period of time, the maximum shoot length per tomato plant is measured, and the average shoot length per floating box and treatment is calculated.

[2] = test system: Solanum lycopersicum ‘Rentita’; experiment: Root growth test of tomatoes under oxygen deficiency conditions in the nutrient solution; conditions: 1.0 mg a.i./plant; floating box, nutrient solution not aerated (oxygen deficiency stress); average maximum root length after 12 d
Description: To prepare a suitable solution of the preparation, I part by weight of active substance is mixed with water to give the desired concentration.
as §1, §2
After the desired period of time, the maximum length of the root per tomato plant is measured, and the average root length per floating box and treatment is calculated.

Botrytis cinerea = experiment: Drench application for controlling Botrytis cinerea (grey mould) on tomatoes; set-up: Disease level, replicates 1-9 / Disease level Ø / Disease level and shed leaves: scale not given here; conditions: tomato; for Disease level Ø / Shed leaves Ø / Disease level, replicates 1-9 / Shed leaves, replicates 1-9 / Disease level and shed leaves: 10 d post-inoculation, drench, all actives 5 d before inoculation; for Disease level Ø / Shed leaves Ø / Disease level, replicates 1-9 / Shed leaves, replicates 1-9: I-34/I-7 10 mg a.i./plant, fluopyram 20 mg a.i./plant; for Disease level Ø / Shed leaves Ø: mean of 9; for Disease level, replicates 1-9 / Shed leaves, replicates 1-9: single replicates; for Disease level and shed leaves: sum of the two Ø
Description: To control Botrytis cinerea (grey mould) on tomatoes, tomato plants which had been grown in peaty soil were treated with the compounds I-34 or I-7 alone or in combination with the fungicide fluopyram (drench application) 5 or 10 days before being inoculated with Botrvtis cinerea. [table] The inoculation with Botrytis cinerea was carried out at the stated points in time (5 or 10 days after drench application of compound I-34, I-7 and/or fluopyram). Inoculation density: 15 000 spores/ml, approx. 33 ml of spore suspension/plant. The disease level of the plants was evaluated 10 days after the inoculation with Botrytis cinerea.

[3] = test system: Solanum lycopersicum ‘Rentita’; experiment: Leaf biomass test on tomatoes under oxygen deficiency conditions in the nutrient solution; conditions: 1.0 mg a.i./plant, floating box, nutrient solution not aerated (oxygen deficiency stress)
Source text: (§3) To prepare a suitable solution of the preparation, 1 part by weight of formulated product is mixed with water to give the desired concentration.
(§4) Wheat kernels (Triticum aestivum ‘Dekan’) or tomato seeds (Solanum lycopersicum ‘Rentita’) are sown in compost and grown under suitable climatic conditions in a floating box provided with the solution of the preparation. The nutrient solution of the floating box was not aerated (oxygen deficiency stress).
(§5) After the desired period of time, the leaf biomass per wheat or tomato plant is measured, and the average weight per floating box and treatment is calculated.

[4] = test system: Triticum aestivum ‘Dekan’; experiment: Leaf biomass test on wheat under oxygen deficiency conditions in the nutrient solution; conditions: 0.5 mg a.i./plant, floating box, nutrient solution not aerated (oxygen deficiency stress)
Source text: as §3, §4, §5

[5] = test system: Triticum aestivum ‘Dekan’; experiment: Root growth test of wheat under oxygen deficiency conditions in the nutrient solution; conditions: 0.5 mg a.i./plant; floating box, nutrient solution not aerated (oxygen deficiency stress); average maximum root length after 14 d
Description: To prepare a suitable solution of the preparation, I part by weight of formulated product is mixed with water to give the desired concentration.
Wheat kernels (Triticum aestivum ‘Dekan’) are sown in compost and grown under suitable climatic conditions in a floating box provided with the solution of the preparation. The nutrient solution of the floating box was not aerated (oxygen deficiency stress).
After the desired period of time, the maximum length of the root per wheat plant is measured, and the average root length per floating box and treatment is calculated.

SMILES | Shoot length of tomatoes: Length in cm after 19 d [1] | Root growth of tomatoes: Length in cm after 12 d [2] | Disease level Ø (Botrytis cinerea) | Shed leaves Ø (Botrytis cinerea) | Disease level, replicates 1-9 (Botrytis cinerea) | Shed leaves, replicates 1-9 (Botrytis cinerea) | Disease level and shed leaves (Botrytis cinerea) | other results
CN(Cc1cnc(Cl)c(F)c1)C1=CC(=O)OC1 [Compound (I-8), 4-{[(6-chloro-5-fluoropyrid-3-yl)methyl](methyl)amino}furan-2(5H)-one] | 6.6 cm | 7.43 cm | – | – | – | – | – | –
O=C1C=C(N(Cc2ccc(Cl)nc2)C2CC2)CO1 [Compound (I-31), 4-{[(6-chloropyrid-3-yl)methyl](cyclopropyl)amino}furan-2(5H)-one] | 6.78 cm | 11.16 cm | – | – | – | – | – | –
CC1OC(=O)C=C1N(C)Cc1ccc(Cl)nc1 (stereo not drawn) [Compound (I-25), 4-{[(6-chloropyrid-3-yl)methyl](methyl)amino}-5-methylfuran-2(5H)-one] | 6.8 cm | 9.19 cm | – | – | – | – | – | –
O=C1C=C(N(CCF)Cc2ccc(Cl)nc2)CO1 [Compound (I-6), 4-{[(6-chloropyrid-3-yl)methyl](2-fluoroethyl)amino}furan-2(5H)-one] | 7.33 cm | 11.08 cm | – | – | – | – | – | –
CN(Cc1ccc(Cl)nc1)C1=CC(=O)CC1 [Compound (I-18), 3-{[(6-chloropyrid-3-yl)methyl](methyl)amino}cyclopent-2-en-1-one] | – | 7.56 cm | – | – | – | – | – | –
CN(Cc1ccc(Cl)nc1)C1=CC(=O)OC1 [Compound (I-34), 4-{[(6-chloropyrid-3-yl)methyl](methyl)amino}furan-2(5H)-one] | 6.75 cm | 9.53 cm | 3 | 3 | 5 and 2 (4×) and 3 (2×) and 4 (2×) | 3 (3×) and 0 and 4 (3×) and 5 and 2 | 61 | –
O=C(NCCc1ncc(C(F)(F)F)cc1Cl)c1ccccc1C(F)(F)F [Fluopyram, fluopyram, reference compound] | – | – | 1 | 0 | 5 (3×) and 2 and 1 (3×) and 3 (2×) | 0 | 11 | Appearance of infected leaf tissue (symptoms of the disease) (Botrytis cinerea; 10 d post-inoculation with Botrytis cinerea, FIGS. 4-6, in words): remains dark and wet
O=C1C=C(N(CCF)Cc2cnc(Cl)c(Cl)c2)CO1 [Compound (I-14), 4-{[(5,6-dichloropyrid-3-yl)methyl](2-fluoroethyl)amino}furan-2(5H)-one] | – | 6.97 cm | – | – | – | – | – | –
O=C1C=C(N(Cc2ccc(Cl)nc2)CC(F)F)CO1 [Compound (I-7), 4-{[(6-chloropyrid-3-yl)methyl](2,2-difluoroethyl)amino}furan-2(5H)-one] | 7.15 cm | 8.67 cm | 3 | 3 | 3 (6×) and 2 and 4 and 5 | 5 (3×) and 6 and 3 (2×) and 4 and 2 and 1 | 68 | Leaf biomass of tomato: Weight in g after 21 d [3]: 19.4 g; Leaf biomass of wheat: Weight in g after 22 d [4]: 15.7 g; Root growth of wheat: Length in cm after 14 d [5]: 22.1 cm
